# Assay results: PubChem BioAssay (NCI)
#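 Following 48 hours of exposure in 96-well plates, responses at five concentrations were used to interpolate endpoints linearly. At the GI50, growth is halved. TGI is the concentration that stops growth completely.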 Where a SMILES comes first, the peptide text is derived from it.
# Legend:
# Assay in all cases: growth of human tumour cells (NCI), 48 h
# SK-MEL-2 melanoma = test system: SK-MEL-2 melanoma
# HCC-2998 colon = test system: HCC-2998 colon
# CAKI-1 renal = test system: CAKI-1 renal
# CCRF-CEM leukemia = test system: CCRF-CEM leukemia
# NCI-H226 lung = test system: NCI-H226 lung
# K-562 leukemia = test system: K-562 leukemia
# MDA-MB-231 breast = test system: MDA-MB-231 breast
# COLO 205 colon = test system: COLO 205 colon
# 786-0 renal = test system: 786-0 renal
# RXF 393 renal = test system: RXF 393 renal
Structure (SMILES),TGI (SK-MEL-2 melanoma) [µM],TGI (HCC-2998 colon) [µM],TGI (CAKI-1 renal) [µM],TGI (CCRF-CEM leukemia) [µM],TGI (NCI-H226 lung) [µM],TGI (K-562 leukemia) [µM],TGI (MDA-MB-231 breast) [µM],TGI (COLO 205 colon) [µM],TGI (786-0 renal) [µM],TGI (RXF 393 renal) [µM],GI50 (SK-MEL-2 melanoma) [µM],GI50 (HCC-2998 colon) [µM],GI50 (CAKI-1 renal) [µM],GI50 (CCRF-CEM leukemia) [µM],GI50 (NCI-H226 lung) [µM],GI50 (K-562 leukemia) [µM],GI50 (MDA-MB-231 breast) [µM],GI50 (COLO 205 colon) [µM],GI50 (RXF 393 renal) [µM]
Cc1ccc(/C=C2\CN(C)CC3=C2OC(N)=C(C#N)C3c2ccc(C)cc2)cc1 (configuration not stated),> 63.4,37.2,74.6,22,72.4,> 100,> 63.7,> 69.3,32,28.3,–,–,–,–,–,–,–,–,–
CCOC(=O)c1c(C)n(Cc2ccccc2)c(=O)c2ccccc2c(=O)c2c(=O)ccc(=O)c1=2,> 100,> 100,> 100,> 100,> 100,> 100,> 100,> 100,75.3,40.7,–,–,–,–,–,–,–,–,–
CCN(CC)c1ccc(/C=C(\C#N)c2nc(N)nc(N3N=C(C)CC3(C)C)n2)cc1,34.1,79.1,28.4,> 100,14.6,> 68.7,26.8,> 100,26.8,23.7,–,–,–,–,–,–,–,–,–
Cc1c(N2C(=O)/C(=C/C=C/c3ccccc3)N=C2c2ccccc2)c(=O)n(-c2ccccc2)n1C,44.5,–,> 100,99.2,58.4,75,47.3,30.3,> 100,33.2,–,–,–,–,–,–,–,–,–
CC(C)=CCC[C@]1(C)CC[C@]2(C)C3CCC(=C(C)C)[C@@H](CCCO)[C@]3(C)CC[C@@]2(C)C1 (some centres not stated),71.5,> 100,> 100,> 100,> 100,–,> 100,> 100,> 100,–,–,–,–,–,–,–,–,–,–
CSC1=N/C(=C\c2ccc(C)cc2)C(=O)N1CN1CCOCC1,> 100,–,–,> 100,> 100,> 100,> 100,> 100,> 100,–,–,–,–,–,–,–,–,–,–
CCN(CC)C(=S)SS(=O)(=O)c1ccccc1C(=O)O,> 100,> 100,> 100,> 100,> 100,> 100,> 100,> 100,> 100,> 100,–,–,–,–,–,–,–,–,–
Cc1ccc2c(c1)SSSSS2,–,31.6,36,17,–,> 100,59.1,97.9,37.2,39,–,–,–,–,–,–,–,–,–
CSc1ccc2c(cc1=O)[C@@H](NC(C)=O)CCc1cc(O)c(O)c(O)c1-2,> 100,50.5,> 100,> 100,33.4,–,72.2,> 100,32.4,> 100,–,–,–,–,–,–,–,–,–
COC(CN(C)C(=O)C(C)NC(=O)c1ccccc1)OC (configuration not stated),> 100,–,> 100,> 100,> 100,> 100,> 100,> 100,> 100,> 100,–,–,–,–,–,–,–,–,–
O=c1[nH]c2ccc(C(F)(F)F)cc2nc1-c1ccccc1,–,> 100,> 100,> 100,–,> 100,> 100,> 100,> 100,> 100,–,–,–,–,–,–,–,–,–
C=C1C(=O)O[C@@H]2[C@H]3O[C@]3(C)CCC=C(C)CC[C@@H]12,37.7,56.1,22.5,59.9,49.1,130,–,31.7,–,27.4,–,–,–,–,–,–,–,–,–
NC(=O)NC(=O)c1cnccn1,> 100,> 100,> 100,> 100,> 100,> 100,> 100,–,> 100,> 100,–,–,–,–,–,–,–,–,–
CC1=C2C(O)C(C(C)C(=O)NCC(C)C)CCC2(C)C=CC1=O (configuration not stated),> 100,> 100,> 100,> 100,> 100,> 100,–,> 100,–,> 100,–,–,–,–,–,–,–,–,–
CC/C(=N\NC(=O)c1cccnc1)c1ccc2c(c1)OCCO2,> 100,–,> 100,> 100,> 100,> 100,> 100,> 100,> 100,> 100,–,–,–,–,–,–,–,–,–
CN(C)CCCNc1c(O)c2c(c(O)c1Cl)C(=O)C=CC2=O,–,3.22,> 10,5.7,> 10,> 10,7.77,3.07,3.25,–,–,–,–,–,–,–,–,–,–
CN1C2CCC1CC(OC(c1ccccc1)c1ccccc1)C2 (configuration not stated),32.1,–,> 100,29.9,72.6,34.5,32.7,23.7,27,42.3,–,–,–,–,–,–,–,–,–
CCc1ccc(-c2nnc(COc3ccc(-c4nc5ccc(C)cc5[nH]4)cc3OC)o2)cc1,7.81,> 100,4.92,> 100,4.28,> 100,4.87,96,–,3.29,2.71,11.4,2.07,3.06,2.01,3.12,2.05,8.39,1.75
CC1NC(=O)CNC(=O)CNC(=O)C(Cc2ccc(O)cc2)NC(=O)C(C(C)C)NC(=O)C(C)NC1=O (configuration not stated) (cyclo(GGAAVY); configuration not given here),> 100,> 100,> 100,> 100,> 100,> 100,–,> 100,–,> 100,–,–,–,–,–,> 100,–,–,> 100
CN(C1=NCCO1)c1cccc2ccccc12,> 10,> 10,> 10,> 10,> 10,> 10,> 10,> 10,–,> 10,–,–,–,–,–,–,–,–,–
CNc1ncnc(Sc2nc(N)nc3nc[nH]c23)c1[N+](=O)[O-],8.9,–,12.9,0.892,> 100,5.66,20.6,5.53,16.5,8.06,–,–,–,–,–,–,–,–,–
O=c1c(O)c(-c2ccc(O)cc2O)oc2cc(O)cc(O)c12,> 100,> 100,> 100,> 100,> 100,> 100,> 100,> 100,> 100,–,–,–,–,–,–,–,–,–,–
NC(=S)/N=C/c1c(O)c2ccccc2oc1=O,97.3,> 100,77.9,> 100,> 100,> 100,–,> 100,> 100,86.4,–,–,–,–,–,–,–,–,–
c1ccc(COc2ccc(CC3SCCCS3)cc2)cc1,–,> 100,> 100,> 100,–,> 100,> 100,> 100,–,–,–,–,–,–,–,–,–,–,–

Structure (SMILES),TGI (SK-MEL-2 melanoma) [µM],TGI (HCC-2998 colon) [µM],TGI (CAKI-1 renal) [µM],TGI (CCRF-CEM leukemia) [µM],TGI (NCI-H226 lung) [µM],TGI (K-562 leukemia) [µM],TGI (MDA-MB-231 breast) [µM],TGI (COLO 205 colon) [µM],TGI (786-0 renal) [µM],TGI (RXF 393 renal) [µM],GI50 (SK-MEL-2 melanoma) [µM],GI50 (HCC-2998 colon) [µM],GI50 (CAKI-1 renal) [µM],GI50 (CCRF-CEM leukemia) [µM],GI50 (NCI-H226 lung) [µM],GI50 (K-562 leukemia) [µM],GI50 (MDA-MB-231 breast) [µM],GI50 (COLO 205 colon) [µM],GI50 (RXF 393 renal) [µM]
O=C(NN=C1CCN(Cc2ccccc2)CC1)C(O)(c1ccccc1)c1ccccc1,–,> 100,–,> 100,> 100,–,> 100,> 100,> 100,> 100,–,–,–,–,–,–,–,–,–
CCCCCC(CN1CCOCC1)C(=O)/C=C/c1ccccc1 (configuration not stated),–,4.46,–,6.72,9.31,5.85,–,13.9,3.14,3.47,–,–,–,–,–,–,–,–,–
O=C1C=CC(=O)c2c1ccc1c3ccccc3n(-c3ccccn3)c21,> 100,> 100,–,> 100,82.7,51.1,–,30.2,28.5,–,–,–,–,–,–,–,–,–,–
CCOC(=O)C1(C(=O)OCC)C[C@]23OCCC(=O)[C@H]2[C@H]2C(=O)OC(C)(C)O[C@]23C1,> 100,> 100,> 100,> 100,–,–,> 100,> 100,> 100,–,–,–,–,–,–,–,–,–,–
Cc1cc(-c2ccc(C(=O)O)[nH]2)on1,> 100,> 100,> 100,–,–,> 100,> 100,> 100,> 100,> 100,–,–,–,–,–,–,–,–,–
O=C(Cn1c(=O)ccn(C2OC(CO)C(O)C2F)c1=O)c1ccc(F)cc1 (configuration not stated),–,–,> 100,> 100,> 100,> 100,> 100,> 100,> 100,> 100,–,–,–,–,–,–,–,–,–
COc1ccc2[nH]c(CCNC(=O)c3cc([N+](=O)[O-])cc([N+](=O)[O-])c3)cc2c1,> 100,–,> 100,> 100,> 100,> 100,> 100,> 100,> 100,56.9,–,–,–,–,–,–,–,–,–
c1ccc2c(c1)ccc1nc(-c3ccc4c(c3)OCO4)c3c(c12)CCCC3,> 100,> 100,> 100,> 100,> 100,> 100,44.3,41.7,> 100,–,–,–,–,–,–,–,–,–,–
CN(C)c1ccc(-c2cc(=O)c3ccccc3[nH]2)cc1,–,> 100,–,> 100,> 100,> 100,–,> 100,> 100,> 100,–,–,–,–,–,–,–,–,–
CCCCCCCCCOC(=O)c1cnc(Cl)cn1,40.2,–,31.8,> 100,32.7,> 100,35.6,51.1,> 100,–,–,–,–,–,–,–,–,–,–
CC(C(=O)N1C(=O)N(C(=O)C(C)C(O)c2ccccc2)C(c2ccccc2)C1c1ccccc1)C(O)c1ccccc1 (configuration not stated),50.2,> 100,–,32.2,34.3,41.6,77.9,28.1,> 100,28.1,–,–,–,–,–,–,–,–,–
NC(N)=NCCCC(N=c1c2ccccc2n(O)c2ccccc12)C(=O)O (configuration not stated),> 100,> 100,–,> 100,> 100,> 100,–,> 100,> 100,–,–,–,–,–,–,–,–,–,–
CCN(CC)CCn1c(C(C)(C)C)nc2ccccc21,–,> 100,> 100,> 100,> 100,> 100,–,> 100,> 100,> 100,–,–,–,–,–,–,–,–,–
C=C[C@@H]1OC(=O)O[C@H]1CO,> 100,–,–,> 100,> 100,> 100,> 100,> 100,> 100,–,–,–,–,–,–,–,–,–,–
S=c1[nH]nc(COc2ccc3c(c2)CCCC3)n1/N=C/c1ccc(Cl)cc1,36.2,–,37.2,55.8,–,50.2,44.9,31.2,–,28.8,–,–,–,–,–,–,–,–,–
C=CC1(C)CCC(C(C)C(=O)C(C=C(C)C)OC(C)=O)C12C(=O)Oc1ccccc1C2=O (configuration not stated),> 100,> 100,–,> 100,> 100,> 100,–,> 100,> 100,> 100,–,–,–,–,–,–,–,–,–
Cc1[nH]c2ncn3nc(C(Cl)(Cl)Cl)nc3c2c1Cc1ccccc1,> 100,> 100,> 100,> 100,> 100,–,> 100,> 100,> 100,> 100,–,–,–,–,–,–,–,–,–
CC(=O)OCC1OC(On2ccccc2=S)C(OC(C)=O)C(OC(C)=O)C1OC(C)=O (configuration not stated),> 100,> 100,> 100,34.5,–,> 100,> 100,> 100,> 100,> 100,–,–,–,–,–,–,–,–,–
CNC(=S)/C(=N\Nc1nc[nH]c1C(N)=O)C(N)=S,> 82.3,22.8,> 94.4,–,> 33.9,–,> 24,41.1,> 100,> 100,–,–,–,–,–,–,–,–,–
Cc1ccc(C)c(NC(=O)C(=O)C2C(=O)C3=C(CC2(C)C)Nc2ccccc2S3)c1 (configuration not stated),> 100,> 100,> 100,> 100,> 100,–,> 100,> 100,> 100,> 100,–,–,–,–,–,–,–,–,–
CC(=O)ON(OC(C)=O)c1ccc(C)cc1,> 100,> 100,> 100,–,–,> 100,> 100,> 100,> 100,> 100,–,–,–,–,–,–,–,–,–
O=C(OCCN=C1c2ccccc2CCc2ccccc21)c1cc([N+](=O)[O-])cc([N+](=O)[O-])c1,> 31.6,–,> 31.6,> 100,> 31.6,> 100,> 31.6,> 31.6,> 31.6,> 31.6,–,–,–,–,–,–,–,–,–
COc1c(CC=C(C)C)c(O)c(C(CC(C)C)c2c(O)c(C(C)=O)c(O)c3c2OC(C(C)(C)O)C3)c(O)c1C(C)=O (configuration not stated),–,> 12.5,> 12.5,> 12.5,> 12.5,> 12.5,–,> 12.5,> 12.5,8.56,–,–,–,–,–,–,–,–,–
